According to patent US7476514B2, “Method for monitoring the immune response and predicting clinical outcomes in transplant recipients” (Cylex, Inc., priority 2002, dated 2009):

Test system: CD4 cells
Assay: Cylex Immune Cell Function Assay (ImmuKnow): PHA-stimulated intracellular ATP in CD4 cells from whole blood of treated transplant patient
Type: cell-based, human
Experimental: Whole blood (100 μl of a 1:4 dilution) was tested in quadruplicate with or without phytohemagglutinin (PHA) (2.5 μg/mL) overnight (15-18 hours in a CO2 incubator at 37° C.). Anti-human CD4 monoclonal antibody coated magnetic particles (Dynal Biotech A.S.A., Oslo, Norway) were added to immunoselect CD4 cells from both the stimulated and non-stimulated wells. After washing the CD4 cells selected on a strong magnet (Cylex™ Cat. 1050) a lysing reagent was added to release intracellular ATP. A luciferin/luciferase mixture was then added to the cell lysate. Within 30 minutes after addition of enzyme, the bioluminescent product was measured in a luminometer (PHL Mediators, Austria or Berthold, Maryville, Tenn., or Turner Designs, Sunnyvale, Calif.) (See FIG. 1). The amount of light emitted (emission maximum 562 nm) was compared to a standard curve generated with ATP calibrators (0, 1, 10, 100, 1000 ng/mL). The concentration of ATP (ng/mL) in each sample was then calculated from the calibration curve using an Excel-based program provided by Cylex™.
To perform the assay, 200 μl of sodium heparin anticoagulated whole blood was diluted, aliquoted into wells of a 96-well microtiter plate and stimulated overnight with PHA. CD4+ cells were then selected using antibody-coated magnetic particles, washed and lysed to release intracellular ATP. The intensity of the patient's immune response was quantified by measuring the amount of intracellular ATP produced in response to stimulation.
To perform the Cylex™ Immune Cell Function Assay, 200 μl of sodium heparin anticoagulated whole blood was diluted, aliquoted into wells of a 96-well microtiter plate and stimulated overnight with PHA. CD4+ cells were then selected using antibody-coated magnetic particles, washed and lysed to release intracellular ATP. The intensity of the patient's immune response was quantified by measuring the amount of intracellular ATP produced in response to stimulation. Acute rejection was diagnosed by histopathologic studies of random and endoscopically guided multiple mucosal biopsies. […]

C[C@H]1C[C@@H]2[C@H]([C@@H](O)C[C@@]3(C)[C@H]2CC[C@]3(O)C(=O)COC(=O)CCC(=O)[O-])[C@@]2(C)C=CC(=O)C=C12.[Na+] [Solumedrol, methylprednisolone]
change of immune response (ATP) (Case Study 2, Solumedrol re-initiated after week 43, read at week 44): dropped significantly

OKT3: monoclonal antibody OKT3 (anti-CD3), antilymphocyte drug
immune response (ATP) (Case Study 2, multivisceral transplant recipient with acute rejection, week 39, after initial infusion of OKT3/FK and Solumedrol): 954 ng/mL
immune response (ATP) (Case Study 2, after additional three-day course of OKT3): 582 ng/mL
